# Measured values: patent publication US6143724A, “2-fluorofucosyl-N-aroylglucosamine derivatives, intermediates, therefor, and processes for producing these” (Daikin Industries, Ltd., priority 1997, dated 2000)
# “Also recorded” adds a separate entry of the source.
# How the values were obtained:
# α-fucosidase = test: Evaluation of metabolic stability of sialyl Lewis X derivatives to α-fucosidase (TLC spot densitometry); format: in vitro ADME; conditions: for Spot Area: 28° C.
# Procedure: The metabolic stability of various sialyl Lewis X derivatives to α-fucosidase was assayed. The various sialyl Lewis X derivatives which were used in Example [(2F-Fuc-t-Bu) SLcXOSE], Comparative Example 1 (SLeX Ganglioside), and Comparative Example 2 [(2F-Fuc) SLeX Ganglioside] are shown in the following structural formulas. Herein, the compound used in the present Example is the compound represented by said structural formula (β) obtained in said Example 11. [drawing 48] After […] of each sialyl Lewis X derivative was dissolved in 0.1 mL of dist. water, 0.1 mL of ammonium sulfate suspension of α-fucosidase (made by Wako Chemicals: 2 units or more/mg protein) was added to this solution at 28° C., then the reaction solution was charged on a silica gel TLC plate 5715 (made by Merck Company) at every reaction time course. After developing up to 2 cm using developing solvents (n-butanol:acetic acid:water=8:5:4), this was soaked in an aqueous solution of molybdenum phosphate/phosphoric acid/sulfuric acid mixture, and heated to color. The Rf values (moving ratio) on the TLC plate of products decomposed by α-fucosidase and each sialyl Lewis X derivative (substrate) were as follows.
# Further, it was confirmed from the mass spectrum that each sialyl Lewis X derivative is decomposed by α-fucosidase, and the corresponding derivatives from which the fucose moiety was removed were produced as respective decomposed products. Further, as shown in following Table 1, the residual rates of the individual sialyl Lewis X derivatives were calculated from each spot area (hereinafter, sometimes referred to merely as the area) after each reaction time course as follows. Herein, each area was measured using a densitometer (software: VILBER LOURMAT BIOID V 6.31a): Residual rate of sialyl Lewis X derivative=(substrate area)/(total area of substrate area plus decomposed product area).
# P selectin = target: T1, P selectin (Homo sapiens, UniProt P16109); conditions: H. Kondo et al., J. Med. Chem. 39, 1339 (1996); cited from earlier work
# T1 sequence (P16109 42-830): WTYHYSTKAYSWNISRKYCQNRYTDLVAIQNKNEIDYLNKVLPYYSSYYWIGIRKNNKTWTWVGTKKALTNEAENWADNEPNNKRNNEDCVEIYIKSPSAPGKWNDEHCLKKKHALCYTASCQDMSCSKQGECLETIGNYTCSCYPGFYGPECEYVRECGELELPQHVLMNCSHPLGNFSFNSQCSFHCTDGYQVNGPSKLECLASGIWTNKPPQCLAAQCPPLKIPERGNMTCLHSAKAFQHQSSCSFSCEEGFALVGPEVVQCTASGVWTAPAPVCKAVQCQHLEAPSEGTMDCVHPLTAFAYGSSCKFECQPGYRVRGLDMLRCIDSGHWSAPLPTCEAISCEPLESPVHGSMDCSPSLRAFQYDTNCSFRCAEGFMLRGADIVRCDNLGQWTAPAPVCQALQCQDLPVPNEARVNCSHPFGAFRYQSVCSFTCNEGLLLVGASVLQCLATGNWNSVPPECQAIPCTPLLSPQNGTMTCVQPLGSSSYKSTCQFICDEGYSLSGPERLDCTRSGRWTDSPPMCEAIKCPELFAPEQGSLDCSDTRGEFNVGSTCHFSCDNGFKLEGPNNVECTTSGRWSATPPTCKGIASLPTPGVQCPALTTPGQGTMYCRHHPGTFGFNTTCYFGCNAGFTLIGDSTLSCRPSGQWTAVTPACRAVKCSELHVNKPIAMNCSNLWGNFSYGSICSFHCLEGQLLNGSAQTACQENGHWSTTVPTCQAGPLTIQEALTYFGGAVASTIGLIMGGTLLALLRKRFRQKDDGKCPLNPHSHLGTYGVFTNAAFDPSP
# selectins = conditions: cited from earlier work
# [1] = test system: acute inflammation of the lung induced by cobra toxin; conditions: rats, Mulligan et al., Nature 364, 149 (1993); cited from earlier work
# [2] = time course 0 min after addition of α-fucosidase
# [3] = time course 0.5 min after addition of α-fucosidase, * = color on the TLC completely disappeared
# [4] = time course 1.0 min after addition of α-fucosidase
"stability against / resistance to decomposition by α-fucosidase (in words, from FIG. 1) (α-fucosidase)",Spot Area (α-fucosidase; [2]) [cm^2],Spot Area (α-fucosidase; [3]) [cm^2],Compound,Spot Area (α-fucosidase; [4]) [cm^2],other results
weak resistance to decomposition,1.0,0.36,CCCCCCCCCCCCC/C=C/[C@@H](O)[C@H](CO[C@@H]1O[C@H](CO)[C@@H](O[C@@H]2O[C@H](CO)[C@H](O)[C@H](O[C@@H]3O[C@H](CO)[C@@H](O[C@@H]4O[C@H](CO)[C@H](O)[C@H](O[C@]5(C(=O)O)C[C@H](O)[C@@H](NC(C)=O)[C@H]([C@H](O)[C@H](O)CO)O5)[C@H]4O)[C@H](O[C@@H]4O[C@@H](C)[C@@H](O)[C@@H](O)[C@@H]4F)[C@H]3NC(C)=O)[C@H]2O)[C@H](O)[C@H]1O)NC(=O)CCCCCCCCCCCCCCCCCCCCCCC [Comparative Example 2],0.30,
,,,CC(=O)NC1COC(CO)C(OC2OC(CO)C(O)C(OC3(C(=O)O)CC(O)C(NC(C)=O)C(C(O)C(O)CO)O3)C2O)C1OC1OC(C)C(O)C(O)C1O (centres unmarked) [structural formula (V)],,adhesion-inhibitory activity to P selectin relative to the sialyl Lewis X glycoside of Structural Formula (III) (P selectin): 20 times
rapid decomposition,1.0,0.0,CCCCCCCCCCCCC/C=C/[C@@H](O)[C@H](CO[C@@H]1O[C@H](CO)[C@@H](O[C@@H]2O[C@H](CO)[C@H](O)[C@H](O[C@@H]3O[C@H](CO)[C@@H](O[C@@H]4O[C@H](CO)[C@H](O)[C@H](O[C@]5(C(=O)O)C[C@H](O)[C@@H](NC(C)=O)[C@H]([C@H](O)[C@H](O)CO)O5)[C@H]4O)[C@H](O[C@@H]4O[C@@H](C)[C@@H](O)[C@@H](O)[C@@H]4O)[C@H]3NC(C)=O)[C@H]2O)[C@H](O)[C@H]1O)NC(=O)CCCCCCCCCCCCCCCCC [Comparative Example 1],,
,,,CCCCCCCCCCCCCCC(CCCCCCCCCCCCCC)CO[C@@H]1O[C@H](CO)[C@@H](O[C@@H]2O[C@H](CO)[C@H](O)[C@H](OS(=O)(=O)O)[C@H]2O)[C@H](O[C@@H]2O[C@@H](C)[C@@H](O)[C@@H](O)[C@@H]2O)[C@H]1NC(C)=O [GSC-150],,selectin adhesion-inhibitory activity (in words) (selectins): powerful selectin blocker
,,,CC(=O)NC1C(O)CC(OC2C(O)C(CO)OC(OC3C(CO)OC(O)C(NC(C)=O)C3OC3OC(C)C(O)C(O)C3O)C2O)(C(=O)O)OC1C(O)C(O)CO (centres unmarked) [structural formula (III)],,acute inflammation of the lung [1]: reduced

Compound,"stability against / resistance to decomposition by α-fucosidase (in words, from FIG. 1) (α-fucosidase)",Spot Area (α-fucosidase; [2]) [cm^2],Spot Area (α-fucosidase; [3]) [cm^2],Spot Area (α-fucosidase; [4]) [cm^2],other results
"CC(=O)NC1C(O)CC(OC2C(O)C(CO)OC(OC3C(CO)OC(OC4C(O)C(CO)OC(OC5C(CO)OC(OCC[Si](C)(C)C)C(O)C5O)C4O)C(NC(=O)c4ccc(C(C)(C)C)cc4)C3OC3OC(C)C(O)C(O)C3F)C2O)(C(=O)O)OC1C(O)C(O)CO [Example, 2-(trimethylsilyl)ethyl O-(5-acetamide-3,5-dideoxy-D-glycero-α-D-galacto-2-nunolopyranosylonic acid)-(2→3)-O-β-D-galactopyranosyl-(1→4)-O-[(2-deoxy-2-fluoro-α-L-fucopyranosyl)-(1→3)]-O-[(2-deoxy-2-(4-t-butylbenzamide)-β-D-glucopyranosyl)]-(1→3)-(O-β-D-galactopyranosyl)-(1→4)-β-D-glucopyranoside]",excellent in stability against α-fucosidase; also recorded: strongly resistant to decomposition reaction,1.0,,0.73,Spot Area (α-fucosidase; time course 2.0 min after addition of α-fucosidase): 0.44 cm^2
